In patent US20220193085A1, “METHODS OF THROMBOPROPHYLAXIS” (JANSSEN PHARMACEUTICALS, INC., priority 2020, published 2022):

Tests used:
[1] = UNIVERSE primary efficacy outcome: any thrombotic event (CIAC adjudicated); type: in vivo, pediatric patients; details: Part B rivaroxaban N=64, aspirin N=34, up to end of treatment, full analysis set
Excerpt: This study was a prospective, open-label, active-controlled, multicenter study designed to evaluate the PK and PK/PD profiles, safety, and efficacy of rivaroxaban for thromboprophylaxis in pediatric patients 2 to 8 years of age with single ventricle physiology who have completed the Fontan procedure within 4 months prior to enrollment. The trial was approved by the institutional review board of each participating institution, as well as the appropriate national ethics committee. Written informed consent for trial participation was obtained from the parent or guardian of each patient. An Independent Data Monitoring Committee (IDMC) ensured patients' safety throughout the trial. A Central Independent Adjudication Committee (CIAC) reviewed all efficacy and safety events.
Part B was the randomized, open-label, active-controlled part of the study that evaluated the safety and efficacy of twice daily administration of rivaroxaban compared to ASA (usual standard of care) for thromboprophylaxis for 12 months. Patients randomized to rivaroxaban also had PK and PD assessments.
Primary efficacy outcome: Any thrombotic event, venous or arterial, symptomatic or asymptomatic defined as: • The appearance of a new thrombus within the cardiovascular system on either routine surveillance or clinically indicated imaging, or • The occurrence of a clinical event known to be strongly associated with thrombus (e.g., stroke, pulmonary embolism).
All efficacy outcomes were adjudicated by the CIAC, blinded to assigned treatment.

[2] = human, in vivo
Excerpt: The methods and products of the invention concern dosages that are clinically proven safe and/or effective. Adverse events that impact whether the inventive dose, dosing regimen, treatment or method with rivaroxaban of the present invention are safe are adverse bleeding events that include, for example, major bleeding. “Major bleeding” as used herein is defined in accordance with ISTH criteria as clinically overt bleeding associated with a decrease in hemoglobin of […], a transfusion of the equivalent of […] of packed red blood cells or whole blood, or bleeding at a critical site, or with fatal outcome. Other adverse events include clinically relevant non-major bleeding and trivial (minimal) bleeding.
The primary safety outcome was ISTH defined major bleeding. Major bleeding was defined as overt bleeding and: […]
1) Associated with a fall in hemoglobin of 2 g/dL or more; or 2) Leading to a transfusion of the equivalent of 2 or more units of packed red blood cells or whole blood in adults; or 3) Occurring in a critical site: intracranial, intraspinal, intraocular, pericardial, intraarticular, intramuscular with compartment syndrome, retroperitoneal; or 4) Contributing to death.
The secondary safety outcomes were: Clinically relevant non-major bleeding and trivial (minimal) bleeding events.

[3] = UNIVERSE adverse events, serious adverse events and treatment discontinuation; type: in vivo, pediatric patients; details: Part B rivaroxaban N=64, aspirin N=34
Excerpt: Other safety outcomes: Any adverse events and serious adverse events (SAES).

[4] = treatment-emergent, safety set, listed as ASA
[5] = up to end of treatment, full analysis set

CC(=O)Oc1ccccc1C(=O)O [Aspirin, acetylsalicylic acid]
All-cause mortality, No. of subjects with event [1]: 0 | Any thrombotic event (primary efficacy outcome), % of subjects [1]: (8.8%) | Arterial/intracardiac thrombosis, subjects n (%) [1]: 0 | Ischemic stroke, % of subjects [1]: (2.9%) | Other thrombosis, subjects n (%) [1]: 0 | Pulmonary embolism, subjects n (%) [1]: 0 | Venous thromboembolism, % of subjects [1]: (5.9%) | Venous thromboembolism, No. of subjects with event [1]: 2/34 | Venous thrombosis, % of subjects [1]: (5.9%) | Any thrombotic event (primary efficacy outcome), % of subjects ([1]; listed as ASA): 9% | CRNM bleeding: GI-Lower, % of subjects [2]: (2.9%) | CRNM bleeding: Gastrointestinal, % of subjects [2]: (2.9%) | CRNM bleeding: Gastrointestinal, subjects n (%) [2]: 1 | CRNM bleeding: Gingival, subjects n (%) [2]: 0 | CRNM bleeding: Hematoma, % of subjects [2]: (2.9%) | CRNM bleeding: Skin, % of subjects [2]: (2.9%) | CRNM bleeding: Subconjunctival, % of subjects [2]: (2.9%) | Clinically relevant non-major (CRNM) bleeding, % of subjects [2]: (8.8%) | Clinically relevant non-major (CRNM) bleeding, No. of subjects with event [2]: 3/34 | Clinically relevant non-major bleeding, % of subjects [2]: (8.8%) | Fall in hemoglobin ≥2 g/dL or transfusion of the equivalent ≥2 units of packed red blood cell or whole blood in adults, No. of subjects with event [2]: 0 | Fatal or critical site bleeding, No. of subjects with event [2]: 0 | Major and clinically relevant non-major bleeding, % of subjects [2]: (8.8%) | Major and clinically relevant non-major bleeding, No. of subjects with event [2]: 3/34 | Major bleeding (primary safety outcome), No. of subjects with event [2]: 0 | Subjects with 1 or more on-treatment bleeding events, % of subjects [2]: (41.2%) | Trivial (minimal) bleeding, % of subjects [2]: (35.3%) | Trivial (minimal) bleeding, No. of subjects with event [2]: 12/34 | Trivial bleeding, % of subjects [2]: (35.3%) | Trivial bleeding: Epistaxis, % of subjects [2]: (8.8%) | Trivial bleeding: Epistaxis, subjects n (%) [2]: 3 | Trivial bleeding: GI-Lower, % of subjects [2]: (2.9%) | Trivial bleeding: GI-Lower, subjects n (%) [2]: 1 | Trivial bleeding: GI-Upper, subjects n (%) [2]: 0 | Trivial bleeding: Gastrointestinal, % of subjects [2]: (2.9%) | Trivial bleeding: Gastrointestinal, subjects n (%) [2]: 1 | Trivial bleeding: Gingival, % of subjects [2]: (2.9%) | Trivial bleeding: Gingival, subjects n (%) [2]: 1 | Trivial bleeding: Hematoma, % of subjects [2]: (5.9%) | Trivial bleeding: Hematoma, subjects n (%) [2]: 2 | Trivial bleeding: Skin, % of subjects [2]: (23.5%) | Trivial bleeding: Vascular Access Site, subjects n (%) [2]: 0 | AEs related to Study Agent, % of subjects ([3]; safety set): (26.5%) | AEs related to Study Agent, n (%) ([3]; safety set): 9 | SAEs related to Study Agent, n (%) ([3]; safety set): 0 | TEAEs resulting in Permanent Discontinuation of Study Agent, n (%) ([3]; safety set): 0 | Adverse event: Pleural Effusion, % of participants ([3]; treatment-emergent, safety set): (6%) | All TEAEs (subjects with 1 or more), % of subjects ([3]; treatment-emergent, safety set): (85.3%) | All TESAEs (subjects with 1 or more serious adverse events), % of subjects ([3]; treatment-emergent, safety set): (23.5%) | Serious adverse event: Infections, % of participants ([3]; treatment-emergent, safety set): (12%) | Serious adverse event: Infections, n (%) ([3]; treatment-emergent, safety set): 4 | Serious adverse event: Pleural Effusion, % of participants ([3]; treatment-emergent, safety set): (6%) | Serious adverse event: Pleural Effusion, n (%) ([3]; treatment-emergent, safety set): 2 | Serious adverse event: Respiratory, Thoracic, and Mediastinal Disorders, % of participants ([3]; treatment-emergent, safety set): (9%) | Serious adverse event: Respiratory, Thoracic, and Mediastinal Disorders, n (%) ([3]; treatment-emergent, safety set): 3 | TEAE: Gastrointestinal Disorders, % of subjects ([3]; treatment-emergent, safety set): (26.5%) | TEAE: Gastrointestinal Disorders, n (%) ([3]; treatment-emergent, safety set): 9 | TEAE: General Disorders and Administration Site Conditions, % of subjects ([3]; treatment-emergent, safety set): (23.5%) | TEAE: General Disorders and Administration Site Conditions, n (%) ([3]; treatment-emergent, safety set): 8 | TEAE: Infections and infestations, % of subjects ([3]; treatment-emergent, safety set): (64.7%) | TEAE: Injury, Poisoning, and Procedural Complications, % of subjects ([3]; treatment-emergent, safety set): (29.4%) | TEAE: Injury, Poisoning, and Procedural Complications, n (%) ([3]; treatment-emergent, safety set): 10 | TEAE: Respiratory, Thoracic, and Mediastinal Disorders, % of subjects ([3]; treatment-emergent, safety set): (26.5%) | TEAE: Respiratory, Thoracic, and Mediastinal Disorders, n (%) ([3]; treatment-emergent, safety set): 9 | TEAE: Skin and Subcutaneous Tissue Disorders, % of subjects ([3]; treatment-emergent, safety set): (26.5%) | TEAE: Skin and Subcutaneous Tissue Disorders, n (%) ([3]; treatment-emergent, safety set): 9 | TEAE: Vascular Disorders, % of subjects ([3]; treatment-emergent, safety set): (2.9%) | TEAE: Vascular Disorders, n (%) ([3]; treatment-emergent, safety set): 1 | Adverse event: Pleural Effusion, n (%) [3, 4]: 2 | All TEAEs (subjects with 1 or more), % of subjects [3, 4]: (85%) | All TEAEs (subjects with 1 or more), n (%) [3, 4]: 29 | All TESAEs (subjects with 1 or more serious adverse events), % of subjects [3, 4]: (24%) | All TESAEs (subjects with 1 or more serious adverse events), n (%) [3, 4]: 8 | TEAE: Gastrointestinal Disorders, % of subjects [3, 4]: (26%) | TEAE: General Disorders and Administration Site Conditions, % of subjects [3, 4]: (24%) | TEAE: Infections and infestations, % of subjects [3, 4]: (65%) | TEAE: Infections and infestations, n (%) [3, 4]: 22 | TEAE: Injury, Poisoning, and Procedural Complications, % of subjects [3, 4]: (29%) | TEAE: Respiratory, Thoracic, and Mediastinal Disorders, % of subjects [3, 4]: (26%) | TEAE: Skin and Subcutaneous Tissue Disorders, % of subjects [3, 4]: (26%) | TEAE: Vascular Disorders, % of subjects [3, 4]: (3%) | SAEs, % of subjects [3, 5]: (23.5%) | SAEs, No. of subjects with event [3, 5]: 8/34
